Reference: ChEMBL document CHEMBL1201862, “PubChem BioAssay data set” (2004)
Calls of active or inactive are those of the source.

What was measured:
[1] = target: Ras and Rab interactor 1/Tyrosine-protein kinase ABL1 (Homo sapiens, UniProt P00519+Q13671); type: functional;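 also: biochemical TR-FRET dose-response test measuring inhibition of binding between Rin1 and Abl proteins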
Prothrombin = Prothrombin (Homo sapiens, UniProt P00734); assay: Thrombin 1536 HTS Dose Response Confirmation. [Related pubchem assays: 1046 (Thrombin 1536 HTS; hits were confirmed in this assay)]; type: functional
[2] = target: T1, Microphthalmia-associated transcription factor (Homo sapiens, UniProt O75030); assay: reducers of TRPM1 reporter luminescence, concentration series – cell-based, SK-MEL-5, cherry-picked, set 3, MITF inhibitor project, dose response (AID 493073); type: functional;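 also: SK-MEL-5 melanoma cells with luciferase driven by the MITF target TRPM1 promoter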
T1 sequence (O75030 whole entry): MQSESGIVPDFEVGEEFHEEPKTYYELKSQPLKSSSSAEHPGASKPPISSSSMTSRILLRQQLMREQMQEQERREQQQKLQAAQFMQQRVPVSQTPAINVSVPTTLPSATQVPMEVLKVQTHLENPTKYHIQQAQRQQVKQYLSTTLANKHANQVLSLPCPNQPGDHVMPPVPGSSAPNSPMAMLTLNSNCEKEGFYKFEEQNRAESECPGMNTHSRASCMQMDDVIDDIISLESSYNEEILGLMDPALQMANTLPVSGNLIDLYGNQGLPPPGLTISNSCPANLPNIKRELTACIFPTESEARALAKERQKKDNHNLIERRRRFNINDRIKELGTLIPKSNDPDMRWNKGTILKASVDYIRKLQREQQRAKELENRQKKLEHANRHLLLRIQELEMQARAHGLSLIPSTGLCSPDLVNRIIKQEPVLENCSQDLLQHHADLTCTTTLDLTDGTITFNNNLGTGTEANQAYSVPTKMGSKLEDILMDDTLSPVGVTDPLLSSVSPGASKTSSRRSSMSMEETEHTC

H9c2 = assay: cells; type: functional, cell-based; conditions: Rattus norvegicus, H9c2, Myocardium
BJ [3] = assay: BJ-TERT fibroblast viability loss – cell-based, RAS-independent, luminescence, dose response (AID 1933); type: functional; conditions: Homo sapiens
BJ [4] = assay: cells; type: functional, cell-based; conditions: Homo sapiens
[5] = Trypanosoma cruzi growth suppression in host cells – NIH3T3 host cells, beta-gal luminescence, confirmation (AID 2044); type: functional, cell-based;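 also: intracellular parasites grown in NIH/3T3 mouse fibroblasts as host cells; luminescent beta-galactosidase reporter signal from transgenic T. cruzi replicating inside host cells; inhibitors lower the luminescence signal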
[6] = NIH3T3 cell viability loss – ATP luminescence, mouse fibroblasts, counter-screen, dose response (AID 2010); type: functional, cell-based;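 also: cells exposed to compound for about 90 hours before reading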
BJ [7] = assay: BJ-TERT-LT-ST fibroblast viability loss – cell-based, RAS-independent, luminescence, dose response (AID 1935); type: functional; conditions: Homo sapiens;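 also: BJ fibroblasts immortalized with TERT plus LT and ST oncogenes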
[8] = DRD fibroblast viability loss – cell-based, non-viral oncogenic, luminescence, dose response (AID 1934); type: functional; conditions: Homo sapiens
[9] = target: T2, Replicative DNA helicase DnaB (Mycobacterium tuberculosis, UniProt P9WMR3); assay: DnaB intein splicing inhibitors, dose response, biochemical, cell-free fluorescence (AID 449749); type: functional
T2 sequence (P9WMR3 whole entry): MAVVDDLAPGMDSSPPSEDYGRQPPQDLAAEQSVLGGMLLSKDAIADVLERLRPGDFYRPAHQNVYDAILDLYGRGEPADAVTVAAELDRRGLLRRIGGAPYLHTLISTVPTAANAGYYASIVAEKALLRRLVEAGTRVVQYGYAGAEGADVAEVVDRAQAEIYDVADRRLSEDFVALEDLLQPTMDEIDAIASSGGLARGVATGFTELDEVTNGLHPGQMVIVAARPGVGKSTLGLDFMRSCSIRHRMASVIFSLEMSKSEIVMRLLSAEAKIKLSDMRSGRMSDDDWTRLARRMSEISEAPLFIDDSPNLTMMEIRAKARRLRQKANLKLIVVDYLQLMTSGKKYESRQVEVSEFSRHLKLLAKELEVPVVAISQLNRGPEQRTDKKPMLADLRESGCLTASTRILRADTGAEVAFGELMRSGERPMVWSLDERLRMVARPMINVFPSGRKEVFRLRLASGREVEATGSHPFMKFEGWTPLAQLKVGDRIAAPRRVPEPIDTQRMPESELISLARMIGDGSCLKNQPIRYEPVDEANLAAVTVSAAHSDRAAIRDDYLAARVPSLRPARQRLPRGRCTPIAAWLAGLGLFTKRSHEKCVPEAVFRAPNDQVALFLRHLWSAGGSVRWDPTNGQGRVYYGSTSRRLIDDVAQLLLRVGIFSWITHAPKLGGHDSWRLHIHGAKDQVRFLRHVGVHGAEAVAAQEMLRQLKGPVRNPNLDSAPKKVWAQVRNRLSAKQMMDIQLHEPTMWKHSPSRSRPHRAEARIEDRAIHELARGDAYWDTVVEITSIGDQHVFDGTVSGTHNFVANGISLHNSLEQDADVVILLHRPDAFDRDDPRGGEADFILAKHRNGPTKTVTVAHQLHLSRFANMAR

Vero [10] = assay: cells; type: functional, cell-based; conditions: Chlorocebus sabaeus
Protein RecA = target: T3, Protein RecA (Mycobacterium tuberculosis, UniProt P9WHJ3); assay: Fluorescence Cell-Free Homogeneous Dose Retest to Identify Inhibitors of RecA-Intein Splicing Activity. [Related pubchem assays (depositor defined):AID2097, AID2223, AID489010, AID492950]; type: functional
T3 sequence (P9WHJ3 whole entry): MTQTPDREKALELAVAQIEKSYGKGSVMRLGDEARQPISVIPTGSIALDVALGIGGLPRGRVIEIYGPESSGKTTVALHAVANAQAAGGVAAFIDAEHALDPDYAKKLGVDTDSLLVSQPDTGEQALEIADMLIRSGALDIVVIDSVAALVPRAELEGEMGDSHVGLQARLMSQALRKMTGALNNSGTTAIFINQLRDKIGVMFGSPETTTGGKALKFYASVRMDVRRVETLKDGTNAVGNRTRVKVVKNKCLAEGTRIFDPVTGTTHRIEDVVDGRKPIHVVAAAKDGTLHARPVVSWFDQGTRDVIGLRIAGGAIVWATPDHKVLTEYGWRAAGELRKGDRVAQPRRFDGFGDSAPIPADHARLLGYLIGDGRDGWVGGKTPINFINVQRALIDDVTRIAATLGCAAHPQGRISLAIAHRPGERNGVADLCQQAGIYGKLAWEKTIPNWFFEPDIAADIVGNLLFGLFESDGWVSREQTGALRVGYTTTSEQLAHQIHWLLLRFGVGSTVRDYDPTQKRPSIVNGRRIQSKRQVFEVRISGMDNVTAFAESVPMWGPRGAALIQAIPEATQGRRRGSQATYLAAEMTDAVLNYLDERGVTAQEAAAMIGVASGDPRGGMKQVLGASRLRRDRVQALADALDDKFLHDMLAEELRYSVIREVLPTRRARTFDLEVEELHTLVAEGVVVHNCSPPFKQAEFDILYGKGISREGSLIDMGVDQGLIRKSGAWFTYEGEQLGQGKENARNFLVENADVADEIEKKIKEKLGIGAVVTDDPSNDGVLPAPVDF

Vero [11] = assay: cells; type: functional; conditions: Chlorocebus sabaeus
BJ [12] = assay: growth inhibition of engineered Ras-driven BJ cells – cell-based, alamar blue fluorescence, cherrypicked samples, dose response (AID 2631); type: functional; conditions: Homo sapiens;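 also: confirmatory dose-response assay in RAS-dependent BJ fibroblasts engineered with TERT, LT and ST, with cytotoxicity read by fluorescence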
[13] = Luminescence Cell-Based Dose Retest to Confirm Inhibitors of Cancer Stem Cells. [Related pubchem assays (depositor defined):AID2717, AID2721]; type: functional; conditions: Homo sapiens
Paired box protein Pax-8 = Paired box protein Pax-8 (Homo sapiens, UniProt Q06710); assay: PAX8 transcriptional activity inhibition in RMG-I – RMG-I cells, luciferase, cherry-pick, dose response (AID 687027); type: functional, cell-based;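 also: luciferase reporter driven by Pax8 target thyroperoxidase promoter measured by SteadyGlo luminescence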
Chain of Paired box protein Pax-8 (Q06710 whole entry): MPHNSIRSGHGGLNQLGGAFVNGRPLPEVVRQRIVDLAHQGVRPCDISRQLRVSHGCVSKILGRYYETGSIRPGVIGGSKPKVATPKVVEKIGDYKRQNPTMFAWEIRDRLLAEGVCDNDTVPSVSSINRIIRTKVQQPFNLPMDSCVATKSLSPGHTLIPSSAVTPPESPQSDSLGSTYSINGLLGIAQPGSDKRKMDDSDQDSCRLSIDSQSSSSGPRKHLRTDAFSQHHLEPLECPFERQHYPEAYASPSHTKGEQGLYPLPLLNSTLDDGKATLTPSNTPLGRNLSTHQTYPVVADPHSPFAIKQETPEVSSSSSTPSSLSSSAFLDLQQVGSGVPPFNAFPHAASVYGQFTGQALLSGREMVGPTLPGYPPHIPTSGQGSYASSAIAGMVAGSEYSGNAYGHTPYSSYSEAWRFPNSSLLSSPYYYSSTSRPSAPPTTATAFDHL

[14] = target: T4, Long-chain-fatty-acid--AMP ligase FadD28 (Mycobacterium tuberculosis, UniProt P9WQ59); assay: Fluorescence polarization aasay to screen for inhibitors that compete for the binding of FadD28 to a bisubstrate Measured in Biochemical System Using Plate Reader - 2147-01_Inhibitor_Dose_CherryPick_Activity.; type: functional, Mycobacterium tuberculosis H37Rv
T4 sequence (P9WQ59 whole entry): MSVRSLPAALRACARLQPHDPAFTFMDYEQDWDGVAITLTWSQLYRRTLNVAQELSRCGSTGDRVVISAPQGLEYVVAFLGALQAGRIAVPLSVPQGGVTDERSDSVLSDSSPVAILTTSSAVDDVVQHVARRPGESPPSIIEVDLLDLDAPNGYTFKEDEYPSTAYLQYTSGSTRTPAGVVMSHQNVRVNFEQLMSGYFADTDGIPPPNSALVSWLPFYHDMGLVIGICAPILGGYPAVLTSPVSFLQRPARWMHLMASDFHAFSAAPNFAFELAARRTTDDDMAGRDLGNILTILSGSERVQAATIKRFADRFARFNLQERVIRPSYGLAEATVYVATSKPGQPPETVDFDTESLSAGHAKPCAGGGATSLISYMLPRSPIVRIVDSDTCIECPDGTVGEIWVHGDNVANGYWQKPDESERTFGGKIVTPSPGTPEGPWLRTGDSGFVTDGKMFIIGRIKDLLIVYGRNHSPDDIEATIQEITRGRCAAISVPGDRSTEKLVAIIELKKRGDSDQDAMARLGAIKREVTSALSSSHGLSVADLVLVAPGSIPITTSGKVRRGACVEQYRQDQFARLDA

[15] = intracellular Trypanosoma cruzi inhibitors in host cells – cell-based, plate reader, cherry-pick samples, set 3, dose response (AID 651818); type: functional;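 also: compounds incubated with infected cells for about four days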
[16] = viability of uninfected HEp-2 cells – cell-based, HTS, cytotoxicity control for RSV inhibitor project, dose response (AID 2410); type: functional; conditions: human respiratory syncytial virus
[17] = HEK-293T viability loss after treatment – luminescence, T-cell screen hits, cytotoxicity control for TCR NF-kB inhibitor project, dose response (AID 489026); type: functional, cell-based;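 also: cells exposed to compound about 14 hours before the viability readout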

Chain of Ras and Rab interactor 1/Tyrosine-protein kinase ABL1 (P00519 whole entry): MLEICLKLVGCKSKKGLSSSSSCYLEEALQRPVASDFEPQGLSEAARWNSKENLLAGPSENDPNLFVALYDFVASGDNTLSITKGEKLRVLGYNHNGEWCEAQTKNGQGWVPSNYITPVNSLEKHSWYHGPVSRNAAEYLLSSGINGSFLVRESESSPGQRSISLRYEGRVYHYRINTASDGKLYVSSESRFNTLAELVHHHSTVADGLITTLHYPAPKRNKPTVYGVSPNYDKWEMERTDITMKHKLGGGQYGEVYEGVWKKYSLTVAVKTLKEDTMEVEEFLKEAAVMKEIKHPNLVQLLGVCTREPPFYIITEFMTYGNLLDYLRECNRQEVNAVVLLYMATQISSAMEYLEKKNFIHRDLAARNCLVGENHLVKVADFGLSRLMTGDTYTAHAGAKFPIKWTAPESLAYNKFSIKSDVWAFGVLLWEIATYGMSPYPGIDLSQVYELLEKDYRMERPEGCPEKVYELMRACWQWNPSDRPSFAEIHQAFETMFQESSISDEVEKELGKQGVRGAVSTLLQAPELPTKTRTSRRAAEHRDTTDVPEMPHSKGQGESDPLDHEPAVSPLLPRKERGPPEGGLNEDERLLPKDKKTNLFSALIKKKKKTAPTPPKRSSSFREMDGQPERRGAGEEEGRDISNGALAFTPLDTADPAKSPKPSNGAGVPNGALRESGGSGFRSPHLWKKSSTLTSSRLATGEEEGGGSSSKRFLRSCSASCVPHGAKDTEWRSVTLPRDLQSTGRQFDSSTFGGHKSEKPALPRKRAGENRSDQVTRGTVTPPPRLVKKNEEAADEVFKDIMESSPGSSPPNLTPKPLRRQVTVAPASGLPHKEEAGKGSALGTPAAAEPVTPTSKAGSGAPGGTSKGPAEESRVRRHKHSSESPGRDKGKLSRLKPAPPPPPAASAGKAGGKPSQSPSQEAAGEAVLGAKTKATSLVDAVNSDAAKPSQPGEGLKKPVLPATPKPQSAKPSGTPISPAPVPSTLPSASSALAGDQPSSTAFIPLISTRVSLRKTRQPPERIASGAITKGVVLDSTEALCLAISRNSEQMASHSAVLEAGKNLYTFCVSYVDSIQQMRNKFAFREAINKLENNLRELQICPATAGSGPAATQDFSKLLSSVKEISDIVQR
Chain of Ras and Rab interactor 1/Tyrosine-protein kinase ABL1 (Q13671 whole entry): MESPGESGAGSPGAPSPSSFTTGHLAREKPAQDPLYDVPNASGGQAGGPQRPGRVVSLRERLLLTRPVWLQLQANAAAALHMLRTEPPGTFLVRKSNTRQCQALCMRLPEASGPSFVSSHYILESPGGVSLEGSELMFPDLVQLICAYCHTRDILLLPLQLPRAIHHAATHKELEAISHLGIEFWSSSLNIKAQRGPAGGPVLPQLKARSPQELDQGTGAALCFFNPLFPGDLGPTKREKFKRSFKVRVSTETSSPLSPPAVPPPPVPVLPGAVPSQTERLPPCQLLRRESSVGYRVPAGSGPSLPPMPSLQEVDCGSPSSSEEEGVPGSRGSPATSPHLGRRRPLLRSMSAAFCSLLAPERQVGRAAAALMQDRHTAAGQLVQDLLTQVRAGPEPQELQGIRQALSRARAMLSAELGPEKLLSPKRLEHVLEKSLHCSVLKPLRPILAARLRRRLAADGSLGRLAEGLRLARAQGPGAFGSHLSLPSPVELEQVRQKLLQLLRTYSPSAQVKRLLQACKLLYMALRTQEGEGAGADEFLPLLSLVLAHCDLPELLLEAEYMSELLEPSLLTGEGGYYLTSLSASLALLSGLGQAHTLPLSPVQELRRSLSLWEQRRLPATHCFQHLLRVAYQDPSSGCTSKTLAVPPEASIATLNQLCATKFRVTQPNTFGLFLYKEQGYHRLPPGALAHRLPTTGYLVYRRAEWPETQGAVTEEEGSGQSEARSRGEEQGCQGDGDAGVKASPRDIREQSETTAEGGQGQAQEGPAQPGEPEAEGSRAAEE

## COC(=O)c1ccc(CSc2nnc(-c3c[nH]c4ccccc34)n2C)o1
[1]
  IC50: 13.8 µM (inactive)

## CCOC(=O)c1c(C)n(C(=O)c2ccco2)c(=O)n1C(=O)c1ccco1
Prothrombin
  IC50: 0.533 µM (active)
[1]
  IC50: 11 µM (inactive)

## NNC(=O)c1cc2ccccc2cc1O
[2]
  AC50: 24 µM (active)
H9c2
  IC50: > 79 µM (inactive)

## COc1ccc(C2CC(c3cccs3)=NN2C(=O)CCl)cc1OC (centres undefined)
BJ [3]
  EC50: 0.834 µM (active)
BJ [4]
  EC50: 6.92 µM (active)
[5]
  EC50: 2.21 µM (active)
[6]
  EC50: 2.64 µM (active)
BJ [7]
  EC50: 6.05 µM (inconclusive)
[8]
  EC50: 5.26 µM (inconclusive)
[9]
  AC50: 8.43 µM (active)
Vero [10]
  IC50: > 25 µM (active)
Protein RecA
  EC50: 1.41 µM (active)
Vero [11]
  CC50: 3.51 µM (active)

## O=[N+]([O-])c1cccc(/C(O)=C(/C([S-])=Nc2cccc3ccccc23)[n+]2ccccc2)c1
Vero [10]
  IC50: > 25 µM (active)

## COc1ccc(F)cc1CN1CCN(C(=O)CCC(=O)Nc2nnc(CC(C)C)s2)CC1
BJ [3]
  EC50: > 150 µM (not active)
BJ [4]
  EC50: > 150 µM (not active)
BJ [7]
  EC50: > 150 µM (inconclusive)
[8]
  EC50: > 150 µM (inconclusive)
BJ [12]
  EC50: > 133 µM (inactive)

## CCCCSc1cc(O)nc(N)n1
[1]
  IC50: 22.2 µM (inactive)

## O=C(Nc1ccccc1)NN(C(=O)CCl)c1ccccc1
[13]
  AC50: 3.11 µM (active)
[2]
  AC50: 8.5 µM (active)
[9]
  AC50: 13.7 µM (active)
Protein RecA
  EC50: 0.861 µM (active)
Paired box protein Pax-8
  AC50: 4.57 µM (active)

## Cc1ccc(C(=O)N2CC(C)CC(C)C2)cc1NC1=NC2CS(=O)(=O)CC2S1 (centres undefined)
[1]
  IC50: 14.3 µM (inactive)

## COc1cc(NC(=O)c2cccs2)c(OC)cc1NC(=O)CCC(=O)Nc1ccc2ncccc2c1
BJ [3]
  EC50: > 150 µM (not active)
BJ [4]
  EC50: 8.14 µM (active)
BJ [7]
  EC50: > 150 µM (not active)
[8]
  EC50: > 150 µM (not active)
BJ [12]
  EC50: 4.28 µM (inconclusive)

## Nc1ncnc2c1ncn2[C@@H]1O[C@H](CNCc2ccc(OCC(=O)Nc3ccccn3)cc2)[C@@H](O)[C@H]1O
[14]
  AC50: > 100 µM (inactive)

## O=C(COC(=O)c1ccc(F)c([N+](=O)[O-])c1)NC(=O)NCc1ccccc1
[2]
  AC50: 13.6 µM (active)

## Nc1cc[n+]([O-])cc1CCc1ccccc1
[1]
  IC50: 23.3 µM (inactive)

## O=C(Cc1ccc(NC(=O)C2CCN(C(=O)c3ccccc3)CC2)cc1)Nc1ccc(C(=O)N2CCOCC2)cc1
[1]
  IC50: 6.48 µM (active)

## C[C@H](CO)N1C[C@H](C)[C@@H](CN(C)Cc2ccc(C(=O)Nc3ccccc3N)cc2)Oc2c(NC(=O)c3nc4ccccc4s3)cccc2C1=O
[15]
  AC50: 1.6 µM (active)

## C[C@H]1CN([C@@H](C)CO)C(=O)c2cccc(NC(=O)CCCCCC(=O)Nc3ccccc3N)c2O[C@H]1CN(C)S(=O)(=O)c1ccc(Cl)cc1
[15]
  AC50: 3.53 µM (active)

## C[C@@H]1CCCCO[C@@H](CN(C)C(=O)Nc2ccc(C(F)(F)F)cc2)[C@@H](C)CN([C@H](C)CO)C(=O)c2cc(NC(=O)Cc3ccccc3)ccc2O1
[15]
  AC50: 4.33 µM (active)

## C[C@H](CO)N1C[C@H](C)[C@H](CN(C)S(=O)(=O)c2cccs2)Oc2c(NC(=O)Nc3ccc(C(F)(F)F)cc3)cccc2C1=O
[15]
  AC50: 4.19 µM (active)

## Cc1cccc(-n2c(C)cc(/C=N\NC(=O)c3cccs3)c2C)c1
[16]
  CC50: 23.4 µM (active)
Vero [10]
  IC50: 14.7 µM (active)
Vero [11]
  CC50: > 25 µM (active)

## C[C@]12CC[C@H](O)C[C@H]1CC[C@@H]1[C@@H]2C[C@@H](O)[C@]2(C)[C@@H](C3=CC(=O)OC3)CC[C@]12O [DIGOXIGENIN]
[13]
  AC50: 1.16 µM (active)
[17]
  IC50: > 80 µM (inactive)
Vero [10]
  IC50: < 0.05 µM (active)
Vero [11]
  CC50: 2.1 µM (active)
Paired box protein Pax-8
  AC50: 2.35 µM (active)
